Assay results: patent US12139492B2 (Endotarget Inc., priority 2021, dated 2024)

How the values were obtained:
[1] = test system: Mino cells; test: Antiproliferative effect, MTS cell viability assay, Mino cells; type: cell-based; conditions: Homo sapiens, MINO, Mino mantle cell lymphoma cells; read-out: IC50 (anti-proliferation) Mino cells
In short: (§1)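 Mino and JeKo-1 mantle B-cell lymphoma lines were exposed to compound at 0, 0.001, 0.01, 0.1, 1 and 10 μM for 72 h. Viability was read by MTS reduction to formazan, measured as absorbance at 490 nm.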

[2] = molecular target: BTK (Homo sapiens, UniProt Q06187); test: Degradation of BTK protein in Namalwa cells (Western blot; DC50, Dmax); conditions: for DC50: BTK degradation, cell line not given
Sequence of BTK (Q06187 whole entry): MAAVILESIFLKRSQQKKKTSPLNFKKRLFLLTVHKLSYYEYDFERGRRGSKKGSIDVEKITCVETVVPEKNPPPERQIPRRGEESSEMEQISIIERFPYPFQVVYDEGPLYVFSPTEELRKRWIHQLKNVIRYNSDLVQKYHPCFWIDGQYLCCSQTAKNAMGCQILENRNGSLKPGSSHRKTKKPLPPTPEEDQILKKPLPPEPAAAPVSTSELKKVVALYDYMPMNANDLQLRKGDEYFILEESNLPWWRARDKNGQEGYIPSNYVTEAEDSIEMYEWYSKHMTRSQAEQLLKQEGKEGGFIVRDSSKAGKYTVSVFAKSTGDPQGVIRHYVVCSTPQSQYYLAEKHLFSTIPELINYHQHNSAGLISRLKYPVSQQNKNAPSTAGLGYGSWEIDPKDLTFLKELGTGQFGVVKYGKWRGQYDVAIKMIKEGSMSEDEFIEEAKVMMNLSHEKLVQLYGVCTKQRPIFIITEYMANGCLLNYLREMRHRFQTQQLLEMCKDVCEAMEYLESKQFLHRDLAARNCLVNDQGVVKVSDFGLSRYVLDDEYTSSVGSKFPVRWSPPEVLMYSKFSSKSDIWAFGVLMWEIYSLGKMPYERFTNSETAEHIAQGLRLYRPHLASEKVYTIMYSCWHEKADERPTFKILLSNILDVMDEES

[3] = test system: JeKo-1 cells; test: Antiproliferative effect, MTS cell viability assay, JeKo-1 cells; type: cell-based; conditions: Homo sapiens; JeKo-1 mantle cell lymphoma cells; read-out: IC50 (anti-proliferation) JeKO-1 cells
In short: as §1

Row | Dmax [2] | DC50 [2] | SMILES | IC50 [1] | IC50 [3]
1 | > 75% | > 50 nM | Nc1ncnc2c1c(-c1ccc(Oc3ccccc3)cc1)nn2C1CCN(C2CCN(C(=O)N3CCN(CCCC4CCN(c5ccc6c(c5)C(=O)N(C5CCC(=O)NC5=O)C6=O)CC4)CC3)CC2)CC1 (stereo not shown) [Compound 259, 5-(4-(3-(4-(4-(4-amino-3-(4-phenoxyphenyl)-1H-pyrazolo[3,4-d]pyrimidin-1-yl)-[1,4′-bipiperidine]-1′-carbonyl)piperazin-1-yl)propyl)piperidin-1-yl)-2-(2,6-dioxopiperidin-3-yl)isoindoline-1,3-dione] | > 10000 nM | 1000 to 10000 nM
2 | > 75% | 10 to 50 nM | Nc1ncnc2c1c(-c1ccc(Oc3ccccc3)cc1)nn2C1CCN(C2CCN(C(=O)N3CCN(CCCC4CCN(c5ccc6c(c5)CN(C5CCC(=O)NC5=O)C6=O)CC4)CC3)CC2)CC1 (stereo not shown) [Compound 260, 3-(5-(4-(3-(4-(4-(4-amino-3-(4-phenoxyphenyl)-1H-pyrazolo[3,4-d]pyrimidin-1-yl)-[1,4′-bipiperidine]-1′-carbonyl)piperazin-1-yl)propyl)piperidin-1-yl)-1-oxoisoindolin-2-yl)piperidine-2,6-dione] | 1000 to 10000 nM | 1000 to 10000 nM
3 | > 90% | 10 to 50 nM | Nc1ncnc2c1c(-c1ccc(Oc3ccccc3)cc1)nn2C1CCN(C2CCN(C(=O)N3CCN(CCCN4CCC(c5ccc6c(c5)C(=O)N(C5CCC(=O)NC5=O)C6=O)CC4)CC3)CC2)CC1 (stereo not shown) [Compound 261, 5-(1-(3-(4-(4-(4-amino-3-(4-phenoxyphenyl)-1H-pyrazolo[3,4-d]pyrimidin-1-yl)-[1,4′-bipiperidine]-1′-carbonyl)piperazin-1-yl)propyl)piperidin-4-yl)-2-(2,6-dioxopiperidin-3-yl)isoindoline-1,3-dione] | > 10000 nM | 1000 to 10000 nM
4 | > 75% | > 50 nM | Nc1ncnc2c1c(-c1ccc(Oc3ccccc3)cc1)nn2C1CCN(C2CCN(C(=O)N3CCN(CCCN4CCC(c5ccc6c(c5)CN(C5CCC(=O)NC5=O)C6=O)CC4)CC3)CC2)CC1 (stereo not shown) [Compound 262, 3-(5-(1-(3-(4-(4-(4-amino-3-(4-phenoxyphenyl)-1H-pyrazolo[3,4-d]pyrimidin-1-yl)-[1,4′-bipiperidine]-1′-carbonyl)piperazin-1-yl)propyl)piperidin-4-yl)-1-oxoisoindolin-2-yl)piperidine-2,6-dione] | > 10000 nM | 1000 to 10000 nM
5 | > 90% | 10 to 50 nM | Nc1ncnc2c1c(-c1ccc(Oc3ccccc3)cc1)nn2C1CCN(C2CCN(C(=O)N3CCC(CCCN4CCN(c5ccc6c(c5)C(=O)N(C5CCC(=O)NC5=O)C6=O)CC4)CC3)CC2)CC1 (stereo not shown) [Compound 263, 5-(4-(3-(1-(4-(4-amino-3-(4-phenoxyphenyl)-1H-pyrazolo[3,4-d]pyrimidin-1-yl)-[1,4′-bipiperidine]-1′-carbonyl)piperidin-4-yl)propyl)piperazin-1-yl)-2-(2,6-dioxopiperidin-3-yl)isoindoline-1,3-dione] | 1000 to 10000 nM | > 10000 nM
6 | > 75% | 10 to 50 nM | Nc1ncnc2c1c(-c1ccc(Oc3ccccc3)cc1)nn2C1CCN(C2CCN(C(=O)N3CCC(CCCN4CCN(c5ccc6c(c5)CN(C5CCC(=O)NC5=O)C6=O)CC4)CC3)CC2)CC1 (stereo not shown) [Compound 264, 3-(5-(4-(3-(1-(4-(4-amino-3-(4-phenoxyphenyl)-1H-pyrazolo[3,4-d]pyrimidin-1-yl)-[1,4′-bipiperidine]-1′-carbonyl)piperidin-4-yl)propyl)piperazin-1-yl)-1-oxoisoindolin-2-yl)piperidine-2,6-dione] | 1000 to 10000 nM | > 10000 nM
7 | > 75% | 10 to 50 nM | Nc1ncnc2c1c(-c1ccc(Oc3ccccc3)cc1)nn2C1CCN(C2CCN(C(=O)N3CCC(CCCC4CCN(c5ccc6c(c5)C(=O)N(C5CCC(=O)NC5=O)C6=O)CC4)CC3)CC2)CC1 (stereo not shown) [Compound 265, 5-(4-(3-(1-(4-(4-amino-3-(4-phenoxyphenyl)-1H-pyrazolo[3,4-d]pyrimidin-1-yl)-[1,4′-bipiperidine]-1′-carbonyl)piperidin-4-yl)propyl)piperidin-1-yl)-2-(2,6-dioxopiperidin-3-yl)isoindoline-1,3-dione] | 1000 to 10000 nM | 1000 to 10000 nM
8 | > 75% | 10 to 50 nM | Nc1ncnc2c1c(-c1ccc(Oc3ccccc3)cc1)nn2C1CCN(C2CCN(C(=O)N3CCC(CCCC4CCN(c5ccc6c(c5)CN(C5CCC(=O)NC5=O)C6=O)CC4)CC3)CC2)CC1 (stereo not shown) [Compound 266, 3-(5-(4-(3-(1-(4-(4-amino-3-(4-phenoxyphenyl)-1H-pyrazolo[3,4-d]pyrimidin-1-yl)-[1,4′-bipiperidine]-1′-carbonyl)piperidin-4-yl)propyl)piperidin-1-yl)-1-oxoisoindolin-2-yl)piperidine-2,6-dione] | 1000 to 10000 nM | > 10000 nM
9 | > 90% | 10 to 50 nM | Nc1ncnc2c1c(-c1ccc(Oc3ccccc3)cc1)nn2C1CCN(C2CCN(C(=O)N3CCC(CCCN4CCC(c5ccc6c(c5)C(=O)N(C5CCC(=O)NC5=O)C6=O)CC4)CC3)CC2)CC1 (stereo not shown) [Compound 267, 5-(1-(3-(1-(4-(4-amino-3-(4-phenoxyphenyl)-1H-pyrazolo[3,4-d]pyrimidin-1-yl)-[1,4′-bipiperidine]-1′-carbonyl)piperidin-4-yl)propyl)piperidin-4-yl)-2-(2,6-dioxopiperidin-3-yl)isoindoline-1,3-dione] | 1000 to 10000 nM | 1000 to 10000 nM
10 | > 90% | 10 to 50 nM | Nc1ncnc2c1c(-c1ccc(Oc3ccccc3)cc1)nn2C1CCN(C2CCN(C(=O)N3CCC(CCCN4CCC(c5ccc6c(c5)CN(C5CCC(=O)NC5=O)C6=O)CC4)CC3)CC2)CC1 (stereo not shown) [Compound 268, 3-(5-(1-(3-(1-(4-(4-amino-3-(4-phenoxyphenyl)-1H-pyrazolo[3,4-d]pyrimidin-1-yl)-[1,4′-bipiperidine]-1′-carbonyl)piperidin-4-yl)propyl)piperidin-4-yl)-1-oxoisoindolin-2-yl)piperidine-2,6-dione] | < 1000 nM | 1000 to 10000 nM
11 | > 90% | 10 to 50 nM | NC(=O)c1c(-c2ccc(Oc3ccccc3)cc2)nn2c1NCCC2C1CCN(CCOCCOCCN2CCN(c3ccc4c(c3)C(=O)N(C3CCC(=O)NC3=O)C4=O)CC2)CC1 (stereo not shown) [Compound 269, 7-(1-(2-(2-(2-(4-(2-(2,6-dioxopiperidin-3-yl)-1,3-dioxoisoindolin-5-yl)piperazin-1-yl)ethoxy)ethoxy)ethyl)piperidin-4-yl)-2-(4-phenoxyphenyl)-4,5,6,7-tetrahydropyrazolo[1,5-a]pyrimidine-3-carboxamide] | > 10000 nM | > 10000 nM
12 | > 90% | 10 to 50 nM | NC(=O)c1c(-c2ccc(Oc3ccccc3)cc2)nn2c1NCCC2C1CCN(CCOCCOCCN2CCN(c3ccc4c(c3)CN(C3CCC(=O)NC3=O)C4=O)CC2)CC1 (stereo not shown) [Compound 270, 7-(1-(2-(2-(2-(4-(2-(2,6-dioxopiperidin-3-yl)-1-oxoisoindolin-5-yl)piperazin-1-yl)ethoxy)ethoxy)ethyl)piperidin-4-yl)-2-(4-phenoxyphenyl)-4,5,6,7-tetrahydropyrazolo[1,5-a]pyrimidine-3-carboxamide] | 1000 to 10000 nM | > 10000 nM
13 | > 90% | 10 to 50 nM | NC(=O)c1c(-c2ccc(Oc3ccccc3)cc2)nn2c1NCC[C@H]2C1CCN(CCOCCOCCN2CCN(c3ccc4c(c3)C(=O)N(C3CCC(=O)NC3=O)C4=O)CC2)CC1 (stereo partly drawn) [Compound 271, (7S)-7-(1-(2-(2-(2-(4-(2-(2,6-dioxopiperidin-3-yl)-1,3-dioxoisoindolin-5-yl)piperazin-1-yl)ethoxy)ethoxy)ethyl)piperidin-4-yl)-2-(4-phenoxyphenyl)-4,5,6,7-tetrahydropyrazolo[1,5-a]pyrimidine-3-carboxamide] | 1000 to 10000 nM | > 10000 nM
14 | > 90% | 10 to 50 nM | NC(=O)c1c(-c2ccc(Oc3ccccc3)cc2)nn2c1NCC[C@H]2C1CCN(CCOCCOCCN2CCN(c3ccc4c(c3)CN(C3CCC(=O)NC3=O)C4=O)CC2)CC1 (stereo partly drawn) [Compound 272, (7S)-7-(1-(2-(2-(2-(4-(2-(2,6-dioxopiperidin-3-yl)-1-oxoisoindolin-5-yl)piperazin-1-yl)ethoxy)ethoxy)ethyl)piperidin-4-yl)-2-(4-phenoxyphenyl)-4,5,6,7-tetrahydropyrazolo[1,5-a]pyrimidine-3-carboxamide] | 1000 to 10000 nM | > 10000 nM
15 | > 90% | 10 to 50 nM | NC(=O)c1c(-c2ccc(Oc3ccccc3)cc2)nn2c1NCCC2C1CCN(C(=O)N2CCN(CC3CCN(c4ccc5c(c4)C(=O)N(C4CCC(=O)NC4=O)C5=O)CC3)CC2)CC1 (stereo not shown) [Compound 273, 7-(1-(4-((1-(2-(2,6-dioxopiperidin-3-yl)-1,3-dioxoisoindolin-5-yl)piperidin-4-yl)methyl)piperazine-1-carbonyl)piperidin-4-yl)-2-(4-phenoxyphenyl)-4,5,6,7-tetrahydropyrazolo[1,5-a]pyrimidine-3-carboxamide] | < 1000 nM | 1000 to 10000 nM
16 | > 90% | < 10 nM | NC(=O)c1c(-c2ccc(Oc3ccccc3)cc2)nn2c1NCCC2C1CCN(C(=O)N2CCN(CC3CCN(c4ccc5c(c4)CN(C4CCC(=O)NC4=O)C5=O)CC3)CC2)CC1 (stereo not shown) [Compound 274, 7-(1-(4-((1-(2-(2,6-dioxopiperidin-3-yl)-1-oxoisoindolin-5-yl)piperidin-4-yl)methyl)piperazine-1-carbonyl)piperidin-4-yl)-2-(4-phenoxyphenyl)-4,5,6,7-tetrahydropyrazolo[1,5-a]pyrimidine-3-carboxamide] | < 1000 nM | < 1000 nM
